{
  "source": "paper PMC6488665",
  "about": "(2019)",
  "test_system": "kdp c-di-AMP riboswitch transcript (5'-UTR of kdpFABC, run-off from -88 to +363 template) (RNA, riboswitch) AUAAAUCAUUCAUAAAAUUUCCAAAAAAACCUAAAAUCGCUGAGUUCCAGAAAUGGAGCGGGGGAACCAAUUUUGUGCAUCGUCACUUGGGGUGAAUCUUUCAGUUUUGAAAGUAGGGCUACUCUUUAGGCCCGAAUCCGACAGCUAACCUCGUAAGCGUUUAGAGAGGAGGUUUACUUUUUGUUGUUCAUUUUUUGAACACUGAGUAGAGCUCAGUGUUCUUUUUUAAUAUUUAAAUGGUAAAUUUUAACAAAAAAGAGGGGAUAGUUAUGUUAGAUGUUGUAAUGGUCGGGAUUUUUAUUUUAUUAGUUGCAUCGAUGGCAAGUCUUGCAAGUUGGUCAGAUAAAGUUGUGAAAGAAGGA",
  "experiment": "in vitro transcription termination (E. coli RNA polymerase), gel",
  "details": "150 mM KCl, 10 mM MgCl2; 40 mM Tris-HCl pH 7.5, 37 °C; c-di-AMP 0-5 µM; termination rises 27% to 63%; functional, no constant",
  "data": [
    {"molecule": "Nc1ncnc2c1ncn2[C@@H]1O[C@@H]2COP(=O)(O)O[C@H]3[C@@H](O)[C@H](n4cnc5c(N)ncnc54)O[C@@H]3COP(=O)(O)O[C@H]2[C@H]1O", "values": [
      {"measurement": "binding", "result": "yes"}
    ]}
  ]
}
